US7157495B2, “Hexahydrofuro[2,3-B]furan-3-YL-N-{3-[(1,3-benzodioxol-5-ylsulfonyl)(isobutyl)amino]-1-benzyl-2-hydroxypropyl}carbamate as retroviral protease inhibitor” (Tibotec Pharmaceuticals, Ltd., priority 1999, dated 2007)
Like-named read-outs stand apart in the source and are kept apart here.

Key:
Assay type in all cases: cell-based
[1] = test system: HIV strain r13029; assay: Antiviral spectrum, protease inhibitor resistant strain; settings: Human immunodeficiency virus 1, strain r13029; L10I/L, M36I, M46L, L63P, A71V, I84V, N88D, L90M
Method: (§1) HIV- or mock-infected MT4 cells were incubated for five days in the presence of various concentrations of the inhibitor. At the end of the incubation period, all HIV-infected cells have been killed by the replicating virus in the control cultures in the absence of any inhibitor. Cell viability is measured by measuring the concentration of MTT, a yellow, water soluble tetrazolium dye that is converted to a purple, water insoluble formazan in the mitochondria of living cells only. Upon solubilization of the resulting formazan crystals with isopropanol, the absorbance of the solution is monitored at 540 nm. The values correlate directly to the number of living cells remaining in the culture at the completion of the five day incubation. The inhibitory activity of the compound was monitored on the virus-infected cells and was expressed as IC50 and IC90. These values represent the amount of the compound required to protect 50% and 90%, respectively, of the cells from the cytopathogenic effect of the virus. The toxicity of the compound was measured on the mock-infected cells and was expressed as CC50, which represents the concentration of compound required to inhibit the growth of the cells by 50%. The select index (SI) (ratio CC50/IC50) is an indication of the selectivity of the anti-HIV activity of the inhibitor.
(§2) Because of the increasing emergence of drug resistant HIV strains, compound 13 and compound 14 were tested for its potency against HIV strains harbouring several mutations. These mutations are associated with resistance to protease inhibitors and result in viruses that show various degrees of phenotypic cross-resistance to five of the currently commercially available drugs (Saquinavir, Ritonavir, Nelfinavir, Indinavir and Amprenavir).

[2] = test system: HIV strain r13021; assay: as above; settings: L10I, K20R, L24I, M36I, I54V, L63P, A71V, V82T, I84V
Method: as §1, §2

[3] = test system: HIV strain r13022; assay: as above; settings: Human immunodeficiency virus 1, strain r13022; K20R, M36I, M46I/M, 154V, L63P, A71V/I, V82T, L90M
Method: as §1, §2

[4] = test system: HIV strain r13024; assay: as above; settings: Human immunodeficiency virus 1, strain r13024; L10I, M36I, L63P, A71V, G73S, I84V, L90M
Method: as §1, §2

[5] = test system: HIV strain r13020; assay: as above; settings: Human immunodeficiency virus 1, strain r13020; L10I, K20R, M36I, 154V, A71V, V82T, 184V
Method: as §1, §2

[6] = test system: HIV strain r13036; assay: as above; settings: Human immunodeficiency virus 1, strain r13036; L10I, L63P, A71V, G73S, L90M
Method: as §1, §2

[7] = test system: HIV strain r13034; assay: as above; settings: Human immunodeficiency virus 1, strain r13034; L10I, M36I, I54V, L63P, A71V, I84V
Method: as §1, §2

[8] = test system: HIV strain r13026; assay: as above; settings: Human immunodeficiency virus 1, strain r13026; L10I, M46I, I54V, L63P, A71V, V82T, I84V
Method: as §1, §2

[9] = test system: HIV strain r13023; assay: as above; settings: L10I, M36I/M, I54V/I, L63P, A71V, G73S, I84V, L90M
Method: as §1, §2

[10] = test system: HIV strain r13027; assay: as above; settings: Human immunodeficiency virus 1, strain r13027; L10M/I, K20R, M36I, L63P, A71V, G73S, V77I, I84V, L90M
Method: as §1, §2

[11] = test system: HIV strain r13025; assay: as above; settings: Human immunodeficiency virus 1, strain r13025; L10I, M46I, L63P, A71V, I84V
Method: as §1, §2

[12] = test system: HIV strain r13033; assay: as above; settings: Human immunodeficiency virus 1, strain r13033; L10I, M46L, I54V, L63P, A71V, V82A, L90M
Method: as §1, §2

[13] = test system: HIV strain r13030; assay: as above; settings: Human immunodeficiency virus 1, strain r13030; L10V/I, M36I, I54V, L63P, A71V, V82T, L90M
Method: as §1, §2

[14] = test system: HIV strain r13037; assay: as above; settings: Human immunodeficiency virus 1, strain r13037; L10I, M46I, I54V, L63P, A71T, V77I, V82A, L90M
Method: as §1, §2

[15] = test system: HIV strain r13031; assay: as above; settings: Human immunodeficiency virus 1, strain r13031; G48V, I54V, V77I, V82A, L90M/L
Method: as §1, §2

[16] = test system: HIV strain r13035; assay: as above; settings: Human immunodeficiency virus 1, strain r13035; D30N, L63P, V77I, N88D
Method: as §1, §2

[17] = test system: HIV-1 strain LAI; assay: Cellular anti-HIV assay in MT4 cells (MTT)
Method: as §1

[18] = Human immunodeficiency virus 1, strain r13021
[19] = Human immunodeficiency virus 1, strain r13023
[20] = Human immunodeficiency virus 1, MT4, strain LAI, read-out: IC50

SMILES | IC50 [1] | IC50 [2, 18] | IC50 [3] | IC50 [4] | IC50 [5] | IC50 [6] | IC50 [7] | IC50 [8] | IC50 [9, 19] | IC50 [10] | IC50 [11] | IC50 [12] | IC50 [13] | IC50 [14] | IC50 [15] | IC50 [16] | IC50 [17, 20] | IC50 ([2]; strain r13021) | IC50 ([9]; strain r13023) | IC50 ([17]; Human immunodeficiency virus 1, MT4)
CC(C)CN(C[C@@H](O)[C@H](Cc1ccccc1)NC(=O)O[C@H]1CCOC1)S(=O)(=O)c1ccc(N)cc1 [AMP, Amprenavir] | 214 nM | 212 nM | 181 nM | 180 nM | 107 nM | 445 nM | 677 nM | 136 nM | 217 nM | 645 nM | 661 nM | 194 nM | 49.1 nM | 165 nM | 34.1 nM | 10.5 nM | 35.9 nM |  |  | 
CC(C)CN(CC(O)C(Cc1ccccc1)NC(=O)OC1COC2OCCC12)S(=O)(=O)c1ccc2c(c1)OCO2 (stereo not drawn) [Compound 14] | 5.2 nM |  | 1.1 nM | 5.5 nM | 0.8 nM | 2.9 nM | 5.5 nM | 0.8 nM |  | 7.3 nM | 32.8 nM | 1.1 nM | 0.2 nM | 0.5 nM | 0.3 nM | 0.2 nM | 0.8 nM | 1.5 nM | 2.8 nM | 
CC(C)(C)NC(=O)[C@@H]1CN(Cc2cccnc2)CCN1C[C@@H](O)C[C@@H](Cc1ccccc1)C(=O)N[C@H]1c2ccccc2C[C@H]1O [IND, Indinavir] | 922 nM | 1750 nM | 1700 nM | 1070 nM | 1380 nM | 638 nM | 638 nM | 2720 nM | 680 nM | 714 nM | 1250 nM | 848 nM | 574 nM | 196 nM | 154 nM | 7.4 nM | 27.6 nM |  |  | 
Cc1c(O)cccc1C(=O)N[C@@H](CSc1ccccc1)[C@H](O)CN1C[C@H]2CCCC[C@H]2C[C@H]1C(=O)NC(C)(C)C [NEL, Nelfinavir] | 3790 nM | 4100 nM | 4030 nM | 3260 nM | 3750 nM | 3250 nM | 1990 nM | 1220 nM | 1020 nM | 3200 nM | 9130 nM | 1190 nM | 995 nM | 656 nM | 497 nM | 361 nM | 33.1 nM |  |  | 
CC(C)c1nc(CN(C)C(=O)N[C@H](C(=O)N[C@@H](Cc2ccccc2)C[C@H](O)[C@H](Cc2ccccc2)NC(=O)OCc2cncs2)C(C)C)cs1 [RIT, Ritonavir] | 3600 nM | > 10000 nM | > 10000 nM | 2850 nM | 9280 nM | 2830 nM | > 10000 nM | > 10000 nM | 3820 nM | 3140 nM | 2240 nM | 3470 nM | 2990 nM | 2720 nM | 856 nM | 31.1 nM | 30.4 nM |  |  | 
CC(C)(C)NC(=O)[C@@H]1C[C@@H]2CCCC[C@@H]2CN1C[C@@H](O)[C@H](Cc1ccccc1)NC(=O)[C@H](CC(N)=O)NC(=O)c1ccc2ccccc2n1 [SAQ, Saquinavir] | 2610 nM | 1450 nM | 665 nM | 2090 nM | 3510 nM | 514 nM | 1010 nM | 1990 nM | 783 nM | 2920 nM | 157 nM | 52.1 nM | 173 nM | 27.4 nM | 673 nM | 5.3 nM |  |  |  | 7.9 nM
